Laboratory results reported in ChEMBL document CHEMBL2010711, “Synthesis and comparative evaluation of 4-oxa- and 4-aza-podophyllotoxins as antiproliferative microtubule destabilizing agents” (Bioorg Med Chem Lett, 2012).
Active and inactive are the calls of the source.

Experiments:
HCC 2998 = experiment: Cytotoxicity against human HCC2998 cells after 48 hrs by trypan blue dye exclusion assay; type: functional; settings: HCC 2998, 48 h
[1] = Cytotoxicity against human Hs 578T cells after 48 hrs by trypan blue dye exclusion assay; type: functional
HCT-15 = experiment: Cytotoxicity against human HCT15 cells after 48 hrs by trypan blue dye exclusion assay; type: functional; settings: HCT-15, 48 h
A498 = experiment: Cytotoxicity against human A498 cells after 48 hrs by trypan blue dye exclusion assay; type: functional; settings: A498, 48 h
SK-OV-3 = experiment: Cytotoxicity against human SKOV3 cells after 48 hrs by trypan blue dye exclusion assay; type: functional; settings: SK-OV-3, 48 h
RXF 393 = experiment: Cytotoxicity against human RXF393 cells after 48 hrs by trypan blue dye exclusion assay; type: functional; settings: RXF 393, 48 h
CCRF-CEM = experiment: Cytotoxicity against human CCRF-CEM cells after 48 hrs by trypan blue dye exclusion assay; type: functional
NCI-H23 = experiment: Cytotoxicity against human NCI-H23 cells after 48 hrs by trypan blue dye exclusion assay; type: functional; settings: NCI-H23, 48 h
COLO 205 = experiment: Cytotoxicity against human COLO205 cells after 48 hrs by trypan blue dye exclusion assay; type: functional; settings: COLO 205, 48 h
SK-MEL-5 = experiment: Cytotoxicity against human SK-MEL-5 cells after 48 hrs by trypan blue dye exclusion assay; type: functional; settings: SK-MEL-5, 48 h
UACC-257 = experiment: Cytotoxicity against human UACC257 cells after 48 hrs by trypan blue dye exclusion assay; type: functional; settings: UACC-257, 48 h
NCI-H460 = experiment: Cytotoxicity against human NCI-H460 cells after 48 hrs by trypan blue dye exclusion assay; type: functional; settings: NCI-H460, 48 h
HT-29 = experiment: Cytotoxicity against human HT-29 cells after 48 hrs by trypan blue dye exclusion assay; type: functional; settings: HT-29, 48 h
KM12 = experiment: Cytotoxicity against human KM12 cells after 48 hrs by trypan blue dye exclusion assay; type: functional; settings: KM12, 48 h
MDA-MB-231 = experiment: Cytotoxicity against human MDA-MB-231 cells after 48 hrs by trypan blue dye exclusion assay; type: functional; settings: MDA-MB-231, 48 h
PC-3 = experiment: Cytotoxicity against human PC3 cells after 48 hrs by trypan blue dye exclusion assay; type: functional; settings: PC-3, 48 h
SF-295 = experiment: Cytotoxicity against human SF295 cells after 48 hrs by trypan blue dye exclusion assay; type: functional; settings: SF-295, 48 h
OVCAR-5 = experiment: Cytotoxicity against human OVCAR5 cells after 48 hrs by trypan blue dye exclusion assay; type: functional; settings: OVCAR-5, 48 h
NCI/ADR-RES = experiment: Cytotoxicity against human NCI/ADR-RES cells after 48 hrs by trypan blue dye exclusion assay; type: functional
ACHN = experiment: Cytotoxicity against human ACHN cells after 48 hrs by trypan blue dye exclusion assay; type: functional
RPMI-8226 = experiment: Cytotoxicity against human RPMI8226 cells after 48 hrs by trypan blue dye exclusion assay; type: functional; settings: RPMI-8226, 48 h
UO-31 = experiment: Cytotoxicity against human UO31 cells after 48 hrs by trypan blue dye exclusion assay; type: functional; settings: UO-31, 48 h
SR = experiment: Cytotoxicity against human SR cells after 48 hrs by trypan blue dye exclusion assay; type: functional
IGROV-1 = experiment: Cytotoxicity against human IGROV1 cells after 48 hrs by trypan blue dye exclusion assay; type: functional; settings: IGROV-1, 48 h
NCI-H226 = experiment: Cytotoxicity against human NCI-H226 cells after 48 hrs by trypan blue dye exclusion assay; type: functional; settings: NCI-H226, 48 h
OVCAR-8 = experiment: Cytotoxicity against human OVCAR8 cells after 48 hrs by trypan blue dye exclusion assay; type: functional; settings: OVCAR-8, 48 h
786-0 = experiment: Cytotoxicity against human 786-0 cells after 48 hrs by trypan blue dye exclusion assay; type: functional; settings: 786-0, 48 h
HCT-116 = experiment: Cytotoxicity against human HCT116 cells after 48 hrs by trypan blue dye exclusion assay; type: functional; settings: HCT-116, 48 h
HL-60(TB) = experiment: Cytotoxicity against human HL-60(TB) cells after 48 hrs by trypan blue dye exclusion assay; type: functional; settings: HL-60, 48 h
NCI-H522 = experiment: Cytotoxicity against human NCI-H522 cells after 48 hrs by trypan blue dye exclusion assay; type: functional; settings: NCI-H522, 48 h
SN12C = experiment: Cytotoxicity against human SN12C cells after 48 hrs by trypan blue dye exclusion assay; type: functional
M14 = experiment: Cytotoxicity against human M14 cells after 48 hrs by trypan blue dye exclusion assay; type: functional; settings: M14, 48 h
UACC-62 = experiment: Cytotoxicity against human UACC62 cells after 48 hrs by trypan blue dye exclusion assay; type: functional; settings: UACC-62, 48 h
SF-539 = experiment: Cytotoxicity against human SF539 cells after 48 hrs by trypan blue dye exclusion assay; type: functional; settings: SF-539, 48 h
HOP-92 = experiment: Cytotoxicity against human HOP92 cells after 48 hrs by trypan blue dye exclusion assay; type: functional; settings: HOP-92, 48 h
EKVX = experiment: Cytotoxicity against human EKVX cells after 48 hrs by trypan blue dye exclusion assay; type: functional
SNB-19 = experiment: Cytotoxicity against human SNB19 cells after 48 hrs by trypan blue dye exclusion assay; type: functional; settings: SNB-19, 48 h
TK-10 = experiment: Cytotoxicity against human TK10 cells after 48 hrs by trypan blue dye exclusion assay; type: functional; settings: TK-10, 48 h
SNB-75 = experiment: Cytotoxicity against human SNB75 cells after 48 hrs by trypan blue dye exclusion assay; type: functional; settings: SNB-75, 48 h
Malme-3M = experiment: Cytotoxicity against human MALME-3M cells after 48 hrs by trypan blue dye exclusion assay; type: functional
OVCAR-4 = experiment: Cytotoxicity against human OVCAR4 cells after 48 hrs by trypan blue dye exclusion assay; type: functional; settings: OVCAR-4, 48 h
LOX IMVI = experiment: Cytotoxicity against human LOXIMVI cells after 48 hrs by trypan blue dye exclusion assay; type: functional
Paracentrotus lividus [2] = experiment: Microtubule destabilizing activity in Paracentrotus lividus embryo assessed as embryo spinning at 2 fold less effective threshold concentration after 15 mins to 20 hrs; type: functional, organism-based
MCF7 = experiment: Cytotoxicity against human MCF7 cells after 48 hrs by trypan blue dye exclusion assay; type: functional; settings: MCF7, 48 h
MDA-MB-435 = experiment: Cytotoxicity against human MDA-MB-435 cells after 48 hrs by trypan blue dye exclusion assay; type: functional; settings: MDA-MB-435, 48 h
BT-549 = experiment: Cytotoxicity against human BT549 cells after 48 hrs by trypan blue dye exclusion assay; type: functional; settings: BT-549, 48 h
MDA-MB-468 = experiment: Cytotoxicity against human MDA-MB-468 cells after 48 hrs by trypan blue dye exclusion assay; type: functional; settings: MDA-MB-468, 48 h
SK-MEL-28 = experiment: Cytotoxicity against human SK-MEL-28 cells after 48 hrs by trypan blue dye exclusion assay; type: functional; settings: SK-MEL-28, 48 h
DU-145 = experiment: Cytotoxicity against human DU145 cells after 48 hrs by trypan blue dye exclusion assay; type: functional; settings: DU-145, 48 h
CAKI-1 = experiment: Cytotoxicity against human CAKI-1 cells after 48 hrs by trypan blue dye exclusion assay; type: functional; settings: CAKI-1, 48 h
Paracentrotus lividus [3] = experiment: Antimitotic activity against Paracentrotus lividus embryo assessed as cleavage alteration at 2 fold less effective threshold concentration after 2.5 to 6 hrs; type: functional, organism-based
SW-620 = experiment: Cytotoxicity against human SW620 cells after 48 hrs by trypan blue dye exclusion assay; type: functional; settings: SW-620, 48 h
A549 = experiment: Cytotoxicity against human A549 cells after 48 hrs by trypan blue dye exclusion assay; type: functional; settings: A549, 48 h
SK-MEL-2 = experiment: Cytotoxicity against human SK-MEL-2 cells after 48 hrs by trypan blue dye exclusion assay; type: functional; settings: SK-MEL-2, 48 h
MOLT-4 = experiment: Cytotoxicity against human MOLT4 cells after 48 hrs by trypan blue dye exclusion assay; type: functional; settings: MOLT-4, 48 h
SF-268 = experiment: Cytotoxicity against human SF268 cells after 48 hrs by trypan blue dye exclusion assay; type: functional; settings: SF-268, 48 h
OVCAR-3 = experiment: Cytotoxicity against human OVCAR3 cells after 48 hrs by trypan blue dye exclusion assay; type: functional; settings: OVCAR-3, 48 h
NCI-H322M = experiment: Cytotoxicity against human NCI-H322M cells after 48 hrs by trypan blue dye exclusion assay; type: functional
U-251 = experiment: Cytotoxicity against human U251 cells after 48 hrs by trypan blue dye exclusion assay; type: functional; settings: U-251, 48 h
Paracentrotus lividus [4] = experiment: Antimitotic activity against Paracentrotus lividus embryo assessed as cleavage arrest at 2 fold less effective threshold concentration after 2.5 to 6 hrs; type: functional, organism-based

## COc1cc([C@H]2C3=C(COC3=O)Nc3cc4c(cc32)OCO4)cc2c1OCO2
HCC 2998
  GI50: 387 nM
[1]
  GI50: 37.8 nM
HCT-15
  GI50: 256 nM
A498
  GI50: 30.9 nM
SK-OV-3
  GI50: 155 nM
RXF 393
  GI50: 30.3 nM
CCRF-CEM
  GI50: 120 nM
NCI-H23
  GI50: 142 nM
COLO 205
  GI50: 186 nM
SK-MEL-5
  GI50: 101 nM
UACC-257
  GI50: 74.1 nM
NCI-H460
  GI50: 690 nM
HT-29
  GI50: 1250 nM
KM12
  GI50: 36.2 nM
MDA-MB-231
  GI50: 308 nM
PC-3
  GI50: 80.3 nM
SF-295
  GI50: 29 nM
OVCAR-5
  GI50: 1090 nM
NCI/ADR-RES
  GI50: 103 nM
ACHN
  GI50: 357 nM
RPMI-8226
  GI50: 93.1 nM
UO-31
  GI50: 1380 nM
SR
  GI50: 60.1 nM
IGROV-1
  GI50: 185 nM
NCI-H226
  GI50: 4590 nM
OVCAR-8
  GI50: 232 nM
786-0
  GI50: 321 nM
HCT-116
  GI50: 236 nM
HL-60(TB)
  GI50: 99 nM
NCI-H522
  GI50: 144 nM
SN12C
  GI50: 350 nM
M14
  GI50: 228 nM
UACC-62
  GI50: 48 nM
SF-539
  GI50: 48.3 nM
HOP-92
  GI50: 136 nM
EKVX
  GI50: 320 nM
SNB-19
  GI50: 362 nM
TK-10
  GI50: 115 nM
SNB-75
  GI50: 26.7 nM
Malme-3M
  GI50: > 100000 nM
OVCAR-4
  GI50: 98.4 nM
LOX IMVI
  GI50: 117 nM
Paracentrotus lividus [2]
  Activity: inactive
MCF7
  GI50: 37.2 nM
MDA-MB-435
  GI50: 26.9 nM
BT-549
  GI50: 338 nM
MDA-MB-468
  GI50: 119 nM
SK-MEL-28
  GI50: 61 nM
DU-145
  GI50: 173 nM
CAKI-1
  GI50: 128 nM
Paracentrotus lividus [3]
  Activity: inactive
SW-620
  GI50: 98.2 nM
A549
  GI50: 306 nM
SK-MEL-2
  GI50: 207 nM
MOLT-4
  GI50: 360 nM
SF-268
  GI50: 108 nM
OVCAR-3
  GI50: 31.9 nM
NCI-H322M
  GI50: 142 nM
U-251
  GI50: 108 nM
Paracentrotus lividus [4]
  Activity: inactive

## COc1cc(OC)cc(C2C3=C(COC3=O)Nc3cc(OC)ccc32)c1 (centres undefined)
HCC 2998
  GI50: < 10 nM
[1]
  GI50: < 10 nM
HCT-15
  GI50: < 10 nM
A498
  GI50: < 10 nM
SK-OV-3
  GI50: < 10 nM
RXF 393
  GI50: < 10 nM
CCRF-CEM
  GI50: < 10 nM
NCI-H23
  GI50: < 10 nM
COLO 205
  GI50: < 10 nM
SK-MEL-5
  GI50: < 10 nM
UACC-257
  GI50: > 100000 nM
NCI-H460
  GI50: < 10 nM
HT-29
  GI50: < 10 nM
KM12
  GI50: < 10 nM
MDA-MB-231
  GI50: 16.5 nM
PC-3
  GI50: < 10 nM
SF-295
  GI50: < 10 nM
OVCAR-5
  GI50: 40.4 nM
NCI/ADR-RES
  GI50: < 10 nM
ACHN
  GI50: < 10 nM
RPMI-8226
  GI50: < 10 nM
UO-31
  GI50: 48.8 nM
SR
  GI50: < 10 nM
IGROV-1
  GI50: < 10 nM
NCI-H226
  GI50: 14400 nM
OVCAR-8
  GI50: 20.4 nM
786-0
  GI50: 20.3 nM
HCT-116
  GI50: < 10 nM
HL-60(TB)
  GI50: < 10 nM
NCI-H522
  GI50: < 10 nM
SN12C
  GI50: 16.1 nM
M14
  GI50: < 10 nM
UACC-62
  GI50: < 10 nM
SF-539
  GI50: < 10 nM
HOP-92
  GI50: < 10 nM
EKVX
  GI50: < 10 nM
SNB-19
  GI50: 27.8 nM
TK-10
  GI50: 39700 nM
SNB-75
  GI50: < 10 nM
OVCAR-4
  GI50: < 10 nM
LOX IMVI
  GI50: < 10 nM
Paracentrotus lividus [2]
  Activity: inactive
MCF7
  GI50: < 10 nM
MDA-MB-435
  GI50: < 10 nM
BT-549
  GI50: 13.8 nM
MDA-MB-468
  GI50: < 10 nM
SK-MEL-28
  GI50: < 10 nM
DU-145
  GI50: < 10 nM
CAKI-1
  GI50: < 10 nM
Paracentrotus lividus [3]
  Activity: inactive
SW-620
  GI50: < 10 nM
A549
  GI50: < 10 nM
SK-MEL-2
  GI50: 8160 nM
MOLT-4
  GI50: < 10 nM
SF-268
  GI50: < 10 nM
OVCAR-3
  GI50: < 10 nM
NCI-H322M
  GI50: < 10 nM
U-251
  GI50: < 10 nM
Paracentrotus lividus [4]
  Activity: inactive
